Data as given in ChEMBL document CHEMBL3046717, “Synthesis of Alkylene-Tethered Bis-Imidacloprid Derivatives as Highly Insecticidal and Nerve-Exciting Agents with Potent Affinity to [3H] Imidacloprid-Binding Sites on Nicotinic Acetylcholine Receptor” (J Pestic Sci, 2002).

Legend:
Periplaneta americana [1] = assay: Insecticidal activity against Periplaneta americana (American cockroach) assessed as killing compound injected into abdomen of cockroach after 24 hr measured per insect; type: functional
Periplaneta americana [2] = assay: (§1) Insecticidal activity against Periplaneta americana (American cockroach) assessed as killing compound injected into abdomen of cockroach after 24 hr in presence of 50 ug piperonyl butoxide oxidative metabolism inhibitor and 50 ug propargyl propyl benzenephosphonate inhibitor of hydrolytic measured per insect relative to compound alone; type: functional
Periplaneta americana [3] = assay: as §1, with “insect” for “insect relative to compound alone”; type: functional
Periplaneta americana [4] = assay: (§2) Insecticidal activity against Periplaneta americana (American cockroach) assessed as killing compound injected into abdomen of cockroach after 24 hr in presence of 50 ug propargyl propyl benzenephosphonate inhibitor of hydrolytic metabolism of tetramethrin pyrethroid measured per insect; type: functional
Periplaneta americana [5] = assay: Insecticidal activity against Periplaneta americana (American cockroach) assessed as killing compound injected into abdomen of cockroach after 24 hr in presence of 50 ug piperonyl butoxide oxidative metabolism inhibitor measured per insect; type: functional
[6] = molecular target: T1, Nicotinic acetylcholine receptor alpha 5 subunit (Musca domestica) (UniProt A9XFY4); assay: Displacement of [3H]imidacloprid from Musca domestica (house fly)-head membrane nAChR relative to N,N'-(3,3'-(hexane-1,6-diyl)bis(1-((6-chloropyridin-3-yl)methyl)imidazolidin-3-yl-2-ylidene))dinitramide
T1 sequence (whole entry): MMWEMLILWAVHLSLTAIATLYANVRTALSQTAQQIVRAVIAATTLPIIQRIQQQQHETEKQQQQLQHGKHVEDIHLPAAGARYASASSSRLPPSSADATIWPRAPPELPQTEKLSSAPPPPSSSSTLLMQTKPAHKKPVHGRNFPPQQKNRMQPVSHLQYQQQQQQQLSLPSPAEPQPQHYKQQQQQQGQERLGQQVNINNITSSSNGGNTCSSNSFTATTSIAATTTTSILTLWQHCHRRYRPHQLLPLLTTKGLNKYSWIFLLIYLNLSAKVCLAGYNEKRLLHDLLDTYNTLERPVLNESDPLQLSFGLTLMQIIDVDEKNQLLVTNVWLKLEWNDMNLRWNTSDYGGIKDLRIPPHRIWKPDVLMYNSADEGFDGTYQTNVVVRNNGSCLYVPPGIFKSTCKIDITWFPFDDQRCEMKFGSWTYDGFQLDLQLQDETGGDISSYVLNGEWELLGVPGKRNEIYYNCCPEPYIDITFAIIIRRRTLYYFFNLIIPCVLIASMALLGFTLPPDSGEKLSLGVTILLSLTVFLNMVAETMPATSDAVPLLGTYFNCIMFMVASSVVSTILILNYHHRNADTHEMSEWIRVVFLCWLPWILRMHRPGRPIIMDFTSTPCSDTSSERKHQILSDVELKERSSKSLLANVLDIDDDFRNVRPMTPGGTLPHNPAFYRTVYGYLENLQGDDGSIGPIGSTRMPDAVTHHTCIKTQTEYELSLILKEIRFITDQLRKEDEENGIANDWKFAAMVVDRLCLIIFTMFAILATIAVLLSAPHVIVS

[7] = molecular target: T2, Nicotinic acetylcholine receptor alpha 5 subunit (Musca domestica, UniProt A9XFY4); assay: Displacement of [3H]imidacloprid from Musca domestica (house fly)-head membrane nAChR
T2 sequence (A9XFY4 whole entry): T1 sequence (whole entry)

Periplaneta americana [8] = assay: as §2, with “insect relative to compound alone” for “insect”; type: functional
Periplaneta americana [9] = assay: Insecticidal activity against Periplaneta americana (American cockroach) assessed as killing compound injected into abdomen of cockroach after 24 hr in presence of 50 ug piperonyl butoxide oxidative metabolism inhibitor measured per insect relative to compound alone; type: functional
Periplaneta americana [10] = assay: Insecticidal activity against Periplaneta americana (American cockroach) assessed as changes in frequency of firing in nerve cords in nerve preparation measured for every 30 secs immediately after treatment at 3x10'-6 M by electrophysiological method; type: functional, organism-based; details: TDE = time-dependent effect
Periplaneta americana [11] = assay: Insecticidal activity against Periplaneta americana (American cockroach) assessed as changes in frequency of firing in nerve cords in nerve preparation measured for every 30 secs immediately after treatment at 9x10'-7 M by electrophysiological method; type: functional; details: TDE = time-dependent effect

For `O=[N+]([O-])/N=C1/N(Cc2ccc(Cl)nc2)CCN1Cc1cccc(N2CCN(Cc3ccc(Cl)nc3)/C2=N\[N+](=O)[O-])c1`, the MLD (Periplaneta americana [1]) was 20 nmol, the Ratio (Periplaneta americana [2]) was 20 and the MLD (Periplaneta americana [3]) was 1 nmol.

For `O=[N+]([O-])/N=C1\N(CCN2CCN(Cc3ccc(Cl)nc3)/C2=N/[N+](=O)[O-])CCN1Cc1ccc(Cl)nc1`, the MLD (Periplaneta americana [4]) was 2.2 nmol, the MLD (Periplaneta americana [5]) was 8.3 nmol and the MLD (Periplaneta americana [1]) was 8.3 nmol. For the same compound, the Ratio [6] was 0.028, the IC50 [7] was 110 µM and the Ratio (Periplaneta americana [2]) was 8. The Ratio (Periplaneta americana [8]) was 4, the Ratio (Periplaneta americana [9]) was 1 and the MLD (Periplaneta americana [3]) was 1.1 nmol.

`O=[N+]([O-])/N=C1\NCCN1Cc1ccc(Cl)nc1` [IMIDACLOPRID] gave an MLD (Periplaneta americana [4]) of 0.19 nmol, an MLD (Periplaneta americana [5]) of 0.78 nmol and an MLD (Periplaneta americana [1]) of 2.5 nmol. The Ratio [6] was 160, the Ratio (Periplaneta americana [2]) was 36 and the Ratio (Periplaneta americana [8]) was 13. The Ratio (Periplaneta americana [9]) was 3 and the MLD (Periplaneta americana [3]) was 0.07 nmol.

Compound `O=[N+]([O-])/N=C1\N(CCCCN2CCN(Cc3ccc(Cl)nc3)/C2=N/[N+](=O)[O-])CCN1Cc1ccc(Cl)nc1` has an MLD (Periplaneta americana [1]) of 11 nmol, a Ratio (Periplaneta americana [2]) of 2 and an MLD (Periplaneta americana [3]) of 6.5 nmol.

Compound `O=[N+]([O-])/N=C1\N(CC#CCN2CCN(Cc3ccc(Cl)nc3)/C2=N/[N+](=O)[O-])CCN1Cc1ccc(Cl)nc1` has an MLD (Periplaneta americana [1]) of 3.7 nmol, a Ratio (Periplaneta americana [2]) of 12 and an MLD (Periplaneta americana [3]) of 0.3 nmol.

`O=[N+]([O-])/N=C1/N(CCCCCCCN2CCN(Cc3ccc(Cl)nc3)/C2=N/[N+](=O)[O-])CCN1Cc1ccc(Cl)nc1` [Heptamethylene 1,7-bis-imadacloprid] showed an MLD (Periplaneta americana [1]) of 2.8 nmol, a Ratio (Periplaneta americana [2]) of 13 and an MLD (Periplaneta americana [3]) of 0.22 nmol.

For `O=[N+]([O-])/N=C1/N(CCCCCN2CCN(Cc3ccc(Cl)nc3)/C2=N/[N+](=O)[O-])CCN1Cc1ccc(Cl)nc1`, the MLD (Periplaneta americana [1]) was 3.9 nmol, the Ratio (Periplaneta americana [2]) was 24 and the MLD (Periplaneta americana [3]) was 0.16 nmol.

`O=[N+]([O-])/N=C1\N(CCCCCCN2CCN(Cc3ccc(Cl)nc3)/C2=N/[N+](=O)[O-])CCN1Cc1ccc(Cl)nc1` showed an MLD (Periplaneta americana [4]) of 0.22 nmol, an MLD (Periplaneta americana [5]) of 0.58 nmol and an MLD (Periplaneta americana [1]) of 2.2 nmol. For the same compound, the Activity (Periplaneta americana [10]) was “tde”, the Activity (Periplaneta americana [11]) was “tde” and the IC50 [7] was 3.1 µM. For the same compound, the Ratio (Periplaneta americana [2]) was 8, the Ratio (Periplaneta americana [8]) was 10 and the Ratio (Periplaneta americana [9]) was 4. It also gave an MLD (Periplaneta americana [3]) of 0.29 nmol.

Compound `O=[N+]([O-])/N=C1\N(CCCCCCCCN2CCN(Cc3ccc(Cl)nc3)/C2=N/[N+](=O)[O-])CCN1Cc1ccc(Cl)nc1` has an MLD (Periplaneta americana [1]) of 4.5 nmol, a Ratio (Periplaneta americana [2]) of 26 and an MLD (Periplaneta americana [3]) of 0.17 nmol.

`O=[N+]([O-])NC1=NCCN1Cc1ccc(Cl)nc1` [IMIDACLOPRID] showed an IC50 [7] of 0.02 µM.

With `O=[N+]([O-])/N=C1\N(CCCCCCCCCCN2CCN(Cc3ccc(Cl)nc3)/C2=N/[N+](=O)[O-])CCN1Cc1ccc(Cl)nc1` the MLD (Periplaneta americana [4]) was 0.19 nmol, the MLD (Periplaneta americana [5]) was 1.5 nmol and the MLD (Periplaneta americana [1]) was 3.7 nmol. It also gave a Ratio [6] of 0.11, an IC50 [7] of 27 µM and a Ratio (Periplaneta americana [2]) of 16. It also gave a Ratio (Periplaneta americana [8]) of 19, a Ratio (Periplaneta americana [9]) of 2 and an MLD (Periplaneta americana [3]) of 0.23 nmol.

`O=[N+]([O-])/N=C1\N(Cc2ccc(N3CCN(Cc4ccc(Cl)nc4)/C3=N\[N+](=O)[O-])cc2)CCN1Cc1ccc(Cl)nc1` was tested, and the MLD (Periplaneta americana [4]) was 2.7 nmol, the MLD (Periplaneta americana [5]) was 6.7 nmol and the MLD (Periplaneta americana [1]) was 27 nmol. It also gave a Ratio (Periplaneta americana [2]) of 50, a Ratio (Periplaneta americana [8]) of 10 and a Ratio (Periplaneta americana [9]) of 4. It also gave an MLD (Periplaneta americana [3]) of 0.54 nmol.

`O=[N+]([O-])/N=C1\N(C/C=C/CN2CCN(Cc3ccc(Cl)nc3)/C2=N/[N+](=O)[O-])CCN1Cc1ccc(Cl)nc1` gave an MLD (Periplaneta americana [1]) of 30 nmol, a Ratio (Periplaneta americana [2]) of 20 and an MLD (Periplaneta americana [3]) of 1.5 nmol.

`O=[N+]([O-])/N=C1/N(CCCN2CCN(Cc3ccc(Cl)nc3)/C2=N/[N+](=O)[O-])CCN1Cc1ccc(Cl)nc1` was tested, and the MLD (Periplaneta americana [1]) was 4.9 nmol, the Ratio (Periplaneta americana [2]) was 6 and the MLD (Periplaneta americana [3]) was 0.79 nmol.

In the case of `O=[N+]([O-])/N=C1/N(CCCOCCCN2CCN(Cc3ccc(Cl)nc3)/C2=N/[N+](=O)[O-])CCN1Cc1ccc(Cl)nc1`, the MLD (Periplaneta americana [4]) is reported as 0.3 nmol, the MLD (Periplaneta americana [5]) is reported as 0.23 nmol and the MLD (Periplaneta americana [1]) is reported as 5.9 nmol. For the same compound, the Ratio [6] was 0.042, the IC50 [7] was 73 µM and the Ratio (Periplaneta americana [2]) was 20. It also gave a Ratio (Periplaneta americana [8]) of 20, a Ratio (Periplaneta americana [9]) of 26 and an MLD (Periplaneta americana [3]) of 0.3 nmol.

Work on `O=[N+]([O-])/N=C1/N(CCCCCCCCCN2CCN(Cc3ccc(Cl)nc3)/C2=N/[N+](=O)[O-])CCN1Cc1ccc(Cl)nc1` yielded an MLD (Periplaneta americana [1]) of 2.8 nmol, a Ratio (Periplaneta americana [2]) of 16 and an MLD (Periplaneta americana [3]) of 0.17 nmol.
